# Assay results reported in US8791079B2, “Methods for treating heart failure by inhibiting the mitochondrial sodium-calcium exchanger (mNCE)” (priority 2009, dated 2014).
# Key:
# [1] = test system: Guinea pig ventricular myocytes; assay: Mitochondrial NADH autofluorescence in isolated myocytes during 1-Hz stimulation; format: cell-based; conditions: 1-μM ouabain + 100-nM isoproterenol, without (ouabain) or with 1 μM CGP-37157; for NADH level before stimulation: before 1-Hz stimulation; for NADH level by the end of stimulation: end of 1-Hz stimulation (three minutes)
# Description: (§1) Guinea pig ventricular myocytes were isolated by enzymatic digestion as described previously. O'Rourke, B., et al., “Oscillations of membrane current and excitability driven by metabolic oscillations in heart cells,” Science, 265(5174):962-966 (Aug. 12, 1994). Cells were suspended in Dulbecco's Modification of Eagle's Medium (DMEM) supplemented with 5% fetal bovine serum, 1% penicillin/streptomycin, and 15 mmol/L HEPES, pH 7.4, and stored in a 5% CO2 incubator at 37° C.
# Cytosolic Ca^2+ ([Ca^2+]c), mitochondrial Ca^2+ ([Ca^2+]m), and [Na^+]i were measured with the fluorescent indicators indo-1, rhod-2, and sodium-binding benzofuran isophthalate (SBFI), respectively (Invitrogen, Carlsbad, Calif.), and mitochondrial NADH was measured as the cellular autofluorescence with 360-nm excitation/450-nm emission. Indo-1 was loaded into cell with the membrane permeable form, indo-1 AM. To minimize indo-1 loading into the mitochondrial compartment, cells were briefly incubated with indo-1 AM at room temperature for 20 min. Rhod-2 and SBFI experiments were carried out as previously described. Maack et al., supra, Liu and O'Rourke, supra. Cytoplasmic rhod-2 was eliminated by using rhod-2-free patch pipettes. Maack et al., supra, Liu and O'Rourke, supra. The ROS-sensitive fluorescent probe 5-(−6)-chloromethyl-2′,7′-dichlorohydrofluorescein diacetate (CM-H2DCFDA) was used to monitor the extent of oxidative stress, as previously described. Aon, M. A., et al., “Synchronized whole cell oscillations in mitochondrial metabolism triggered by a local release of reactive oxygen species in cardiac myocytes,” J. Biol. Chem., 278(45):44735-44744 (Nov. 7, 2003). This probe is primarily localized in the mitochondrial matrix, see Aon et al., supra, and is oxidized by hydrogen peroxide to yield fluorescent CM-DCF, thus indirectly reporting mitochondrial superoxide production.
# Isolated ventricular myocytes were loaded into a heated field-stimulation chamber (Warner Instruments, Hamden, Conn.) at 37° C. on the stage of a fluorescence microscope (Nikon Eclipse TE300, Nikon Instruments, Inc., Melville, N.Y.). The myocytes were first superfused with control Tyrode's solution containing: NaCl (130 mmol/L), KCl (5 mmol/L), MgCl2 (1 mmol/L), Na-HEPES (10 mmol/L), CaCl2 (2 mmol/L), glucose (10 mmol/L), at pH 7.4. After one minute of recording in the absence of electrical stimulation in control buffer, 1-μM ouabain and 100-nM isoproterenol, with or without 1 μM CGP-37157, were added to buffer. After another five minutes of recording, myocytes were field-stimulated at 1 Hz for three minutes followed by a two-minute recording after returning to the resting state. To record [Ca^2+]m and action potentials, myocytes were whole-cell patch-clamped at 37° C. […]
# [2] = test system: Guinea pig ventricular myocytes; assay: ROS / oxidative stress (CM-H2DCFDA, CM-DCF oxidation) in isolated myocytes; format: cell-based; conditions: 100-nM isoproterenol with 1-μM ouabain, without or with 1-μM CGP-37157; 1-Hz stimulation
# Description: as §1
# Cytosolic Ca^2+ ([Ca^2+]c), mitochondrial Ca^2+ ([Ca^2+]m), and [Na^+]i were measured with the fluorescent indicators indo-1, rhod-2, and sodium-binding benzofuran isophthalate (SBFI), respectively (Invitrogen, Carlsbad, Calif.), and mitochondrial NADH was measured as the cellular autofluorescence with 360-nm excitation/450-nm emission. Indo-1 was loaded into cell with the membrane permeable form, indo-1 AM. To minimize indo-1 loading into the mitochondrial compartment, cells were briefly incubated with indo-1 AM at room temperature for 20 min. Rhod-2 and SBFI experiments were carried out as previously described. Maack et al., supra, Liu and O'Rourke, supra. […]
# Isolated ventricular myocytes were loaded into a heated field-stimulation chamber (Warner Instruments, Hamden, Conn.) at 37° C. on the stage of a fluorescence microscope (Nikon Eclipse TE300, Nikon Instruments, Inc., Melville, N.Y.). […]
# Guinea pig hearts [3] = assay: Hemodynamics of isolated perfused hearts (Langendorff)
# Description: (§2) Guinea pig hearts were quickly excised under anesthesia and mounted on a modified Langendorff apparatus attached to a Powerlab system (AD Instruments, Colorado Springs, Colo.). Hearts were perfused with gassed (95/5% O2/CO2) control buffer containing: 118-mM NaCl, 24-mM NaHCO3, 1.2-mM KH2PO4, 4.75-mM KCl, 1.2-mM MgSO4, 2.0-mM CaCl2, and 10-mM glucose. A buffer-filled latex balloon (Harvard apparatus) was inserted through the mitral valve into the left ventricle. Hearts were suspended in a buffer-filled heating chamber maintained at 37° C. and two electrodes were placed into the bath for volume-conducted electrocardiogram recordings. Heart rate, left ventricular developed pressure (LVDP), maximal rates of contraction and relaxation (±dP/dt), oxygen consumption, and electrocardiograms (ECG) were recorded on a computer. After a ten-minute equilibration period, hearts were subjected to the following protocol: ten-minute baseline recording while the heart was perfused with control buffer, ten-minute recording while 0.25-μM ouabain with or without 1 μM CGP-37157, and sixty-minute recording while hearts were stimulated with 25-nM isoproterenol. The measurements of hemodynamic parameters were determined by taking the average during the last two minutes before ouabain treatment (baseline) and for two minutes during the maximal effect on LVDP of either ouabain or isoproterenol.
# In Table 1A-1C, hemodynamics of isolated perfused hearts were recorded at baseline, with ouabain treatment (1 μM), and with ouabain plus isoproterenol (100 nM) stimulation with or without CGP-37157 (1 μM). HR, heart rate; LVDP, left ventricular developed pressure; Oua: ouabain; CGP: CGP-37157; VF: ventricular fibrillation. *p<0.05 compared to group without CGP; † p<0.05 compared to baseline.
# Guinea pig hearts [4] = assay: Oxygen consumption in isolated perfused hearts
# Description: as §2
# Cardiac O2 concentration was measured with an O2 probe attached to a PowerLab system (AD Instruments). The probe was calibrated with 95% O2-saturated buffer as 100% and 100% N2-saturated buffer as 0%. The molar concentration of O2 consumption was calculated from percentage concentration with the following equation: VO2(μmol/min/g dwt)=CF×(0.02373/22.414)×((760−p)/760)×(ΔO2%/100)/dwt
# where CF is coronary flow (mL/min); 0.02373 is the absorption coefficient of O2 in H2O at 37° C.; 22.414 is the volume (L) of 1 mol gas at STP; 760 is 1 atm in mm Hg; p equals 47.067, which is the vapor pressure of H2O at 37° C.; ΔO2% is the difference in O2 percentage concentration between inflow buffer collected from cannula before heart was mounted and outflow buffer collected from pulmonary artery; dwt is dry heart weight.
# [5] = ouabain application, without or with CGP-37157
# [6] = with ouabain treatment (1 μM, 0.25-μM), −CGP = ouabain alone, +CGP = plus CGP-37157 1 μM
# [7] = with ouabain treatment and isoproterenol stimulation, −CGP without, +CGP with CGP-37157 1 μM
# [8] = after ten minutes treatment of ouabain, without or with CGP-37157
# [9] = 25-nM isoproterenol in ouabain-treated hearts, absence (isoproterenol) or presence of CGP-37157
# [10] = at baseline, group with CGP-37157
smiles,measurement,setting,value
"C[C@@H]1O[C@@H](O[C@H]2C[C@@H](O)[C@]3(CO)[C@H]4[C@H](O)C[C@]5(C)[C@@H](C6=CC(=O)OC6)CC[C@]5(O)[C@@H]4CC[C@]3(O)C2)[C@H](O)[C@H](O)[C@H]1O [ouabain, 1β,3β,5β,11α,14,19-Hexahydroxycard-20(22)-enolide 3-(6-deoxy-α-L-mannopyranoside, reference compound]",NADH level before stimulation,[1],81.7±1.8%
same,NADH level by the end of stimulation,[1],52.3±5.7%
same,oxidation of CM-DCF (oxidative stress),[2],higher rates of oxidation of CM-DCF
same,increase of +dP/dt compared to baseline,Guinea pig hearts [3]; [5],20%
same,increase of LVDP compared to baseline,Guinea pig hearts [3]; [5],13%
same,increase of −dP/dt compared to baseline,Guinea pig hearts [3]; [5],4%
same,+dP/dt,Guinea pig hearts [3]; [6],2241 ± 376 †
same,HR,Guinea pig hearts [3]; [6],246.3 ± 20.3
same,LVDP,Guinea pig hearts [3]; [6],106.0 ± 17.0 †
same,−dP/dt,Guinea pig hearts [3]; [6],−1855 ± 229 †
same,+dP/dt,Guinea pig hearts [3]; [7],3529 ± 644 †
same,HR,Guinea pig hearts [3]; [7],315.3 ± 25.0 †
same,LVDP,Guinea pig hearts [3]; [7],100.4 ± 18.3
same,increase of whole-heart oxygen consumption (VO2) compared to baseline,Guinea pig hearts [4]; [8],18%
"O=C1CSC(c2ccccc2Cl)c2cc(Cl)ccc2N1 (stereo not shown) [CGP-37157, 7-chloro-5-(2-chlorophenyl)-1,5-dihydro-4,1-benzothiazepin-2(3H)-one]",NADH level before stimulation,[1],78.3±3.2%
same,NADH level by the end of stimulation,[1],80.6±2.5%
same,oxidation of CM-DCF (oxidative stress),[2],abolished the increase in oxidative stress induced by ouabain
same,increase of +dP/dt compared to the level with ouabain treatment,Guinea pig hearts [3]; [9],75%
same,increase of LVDP compared to the level with ouabain treatment,Guinea pig hearts [3]; [9],30%
same,increase of heart rate (HR) compared to the level with ouabain treatment,Guinea pig hearts [3]; [9],23%
same,increase of −dP/dt compared to the level with ouabain treatment,Guinea pig hearts [3]; [9],53%
same,+dP/dt,Guinea pig hearts [3]; [10],2326 ± 303
same,HR,Guinea pig hearts [3]; [10],239.3 ± 8.0
same,LVDP,Guinea pig hearts [3]; [10],91.9 ± 10.6
same,−dP/dt,Guinea pig hearts [3]; [10],−1872 ± 163
same,increase of +dP/dt compared to baseline,Guinea pig hearts [3]; [5],approximately 36%
same,increase of −dP/dt compared to baseline,Guinea pig hearts [3]; [5],approximately 23%
same,+dP/dt,Guinea pig hearts [3]; [6],3167 ± 481 †
same,HR,Guinea pig hearts [3]; [6],250.0 ± 13.4
same,LVDP,Guinea pig hearts [3]; [6],100.7 ± 12.0 †
same,−dP/dt,Guinea pig hearts [3]; [6],−2306 ± 218 †
same,+dP/dt,Guinea pig hearts [3]; [7],5530 ± 736 † *
same,HR,Guinea pig hearts [3]; [7],306.7 ± 22.8 †
same,LVDP,Guinea pig hearts [3]; [7],130.9 ± 18.4 †
same,−dP/dt,Guinea pig hearts [3]; [7],−3518 ± 419 †
same,increase of whole-heart oxygen consumption (VO2) compared to baseline,Guinea pig hearts [4]; [8],32%
same,increase of whole-heart oxygen consumption (VO2) compared to baseline,"Guinea pig hearts [4]; ouabain followed by isoproterenol, without (isoproterenol) or with CGP-37157",53%
